These results are taken from patent US20250186434A1, “SOS1 PROTEIN DEGRADERS, PHARMACEUTICAL COMPOSITIONS THEREOF, AND THEIR THERAPEUTIC APPLICATIONS” (BioTheryX, Inc., priority 2022, published 2025).

This assay has as its target T1, HiBiT-tagged endogenous SOS1 protein (Homo sapiens, UniProt Q07889).
T1 construct: HEK293 cells were engineered to express a HiBiT-tagged endogenous SOS1 protein; endogenous in cells; host or cells: HEK293 (engineered, HiBiT knock-in at the endogenous SOS1 locus)
T1 sequence (Q07889 1-1333): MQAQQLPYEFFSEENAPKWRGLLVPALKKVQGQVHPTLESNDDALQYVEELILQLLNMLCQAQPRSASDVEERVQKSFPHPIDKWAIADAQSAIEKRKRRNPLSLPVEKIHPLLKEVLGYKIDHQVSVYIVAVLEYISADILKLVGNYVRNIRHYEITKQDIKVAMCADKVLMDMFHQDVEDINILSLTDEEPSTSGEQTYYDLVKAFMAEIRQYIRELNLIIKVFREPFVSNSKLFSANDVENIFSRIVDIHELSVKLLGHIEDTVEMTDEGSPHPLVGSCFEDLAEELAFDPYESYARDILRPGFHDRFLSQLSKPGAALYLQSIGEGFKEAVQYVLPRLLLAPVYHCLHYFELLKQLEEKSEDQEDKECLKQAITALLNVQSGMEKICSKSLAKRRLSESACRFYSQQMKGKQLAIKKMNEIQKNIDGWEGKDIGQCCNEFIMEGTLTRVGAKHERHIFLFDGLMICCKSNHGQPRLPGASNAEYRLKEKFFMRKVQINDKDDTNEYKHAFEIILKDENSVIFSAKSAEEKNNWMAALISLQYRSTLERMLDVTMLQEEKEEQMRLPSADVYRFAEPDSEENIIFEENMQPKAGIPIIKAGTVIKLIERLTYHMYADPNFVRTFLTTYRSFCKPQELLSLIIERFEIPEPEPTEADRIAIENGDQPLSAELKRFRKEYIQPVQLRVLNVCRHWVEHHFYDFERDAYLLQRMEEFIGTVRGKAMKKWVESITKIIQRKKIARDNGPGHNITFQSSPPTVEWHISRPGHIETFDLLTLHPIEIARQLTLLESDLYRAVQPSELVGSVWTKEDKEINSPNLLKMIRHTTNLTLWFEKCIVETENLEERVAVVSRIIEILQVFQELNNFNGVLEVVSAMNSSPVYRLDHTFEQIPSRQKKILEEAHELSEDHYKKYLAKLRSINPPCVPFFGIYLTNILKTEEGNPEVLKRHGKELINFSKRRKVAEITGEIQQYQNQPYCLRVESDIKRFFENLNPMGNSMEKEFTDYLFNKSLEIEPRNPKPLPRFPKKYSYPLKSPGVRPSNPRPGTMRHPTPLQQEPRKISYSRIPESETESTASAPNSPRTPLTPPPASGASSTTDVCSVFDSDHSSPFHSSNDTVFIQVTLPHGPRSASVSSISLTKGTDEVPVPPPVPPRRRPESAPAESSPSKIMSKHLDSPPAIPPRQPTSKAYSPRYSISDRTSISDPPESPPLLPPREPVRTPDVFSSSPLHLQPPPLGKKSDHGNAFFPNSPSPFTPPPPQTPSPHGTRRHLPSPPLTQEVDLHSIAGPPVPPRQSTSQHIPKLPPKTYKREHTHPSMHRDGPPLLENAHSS
The experiment in a line: SOS1-HiBiT Degradation Assay. It counts as cell-based. The settings on record: HEK293 cells expressing HiBiT-tagged endogenous SOS1, 6 h treatment. The procedure: HEK293 cells were engineered to express a HiBiT-tagged endogenous SOS1 protein. The cells were cultured in DMEM media supplemented with 10% fetal bovine serum, streptomycin, and penicillin. The cells were seeded in a white walled 384-well plate at 12,500 cells/well in 50 μL culture media. The cells were incubated at 37° C. under 5% CO2 overnight. The cells were then treated with DMSO (control) or a compound for 6 h at 37° C. under 5% CO2. After incubation, 25 μL media was removed from each cell and 25 μL NANO-GLO® lytic detection reagent was added to each well. After a 10 min incubation with shaking, luminescence was measured using a PERKINELMER ENVISION® multimode plate reader.
In general terms: With HiBiT, luminescence reflects the tagged protein that the partner subunit can reach.
In the case of `Cc1c([C@@H](C)Nc2nnc(C)c3ccc(N4CCN(CCCCCN5CCC(c6cc7c(cc6F)C(=O)N(C6CCC(=O)NC6=O)C7)CC5)CC4)cc23)cccc1C(F)(F)F` (stereo partly drawn) [Compound A101, 3-(6-fluoro-5-(1-(5-(4-(1-methyl-4-(((R)-1-(2-methyl-3-(trifluoromethyl)phenyl)-ethyl)amino)phthalazin-6-yl)piperazin-1-yl)pentyl)piperidin-4-yl)-1-oxoisoindolin-2-yl)-piperidine-2,6-dione], the DC50 was no more than 100 nM and the Dmax is no less than 70%.

Take `Cc1c([C@@H](C)Nc2nnc(C)c3ccc(N4CCN(CCCCCCCCCN5CCC(c6cc7c(cc6F)C(=O)N(C6CCC(=O)NC6=O)C7)CC5)CC4)cc23)cccc1C(F)(F)F` (stereo partly drawn) [Compound A103, 3-(6-Fluoro-5-(1-(9-(4-(1-methyl-4-(((R)-1-(2-methyl-3-(trifluoromethyl)phenyl)-ethyl)amino)phthalazin-6-yl)piperazin-1-yl)nonyl)piperidin-4-yl)-1-oxoisoindolin-2-yl)-piperidine-2,6-dione]: the half-maximal degradation concentration (DC50) was no more than 100 nM and the Dmax is no less than 70%.

`Cc1c([C@@H](C)Nc2nnc(C)c3ccc(N4CCN(CCCCCCCCCN5CCN(C(=O)CNc6cccc7c(C8CCC(=O)NC8=O)nn(C)c67)CC5)CC4)cc23)cccc1C(F)(F)F` (stereo partly drawn) [Compound A203, 3-(1-methyl-7-((2-(4-(9-(4-(1-methyl-4-(((R)-1-(2-methyl-3-(trifluoromethyl)-phenyl)ethyl)amino)phthalazin-6-yl)piperazin-1-yl)nonyl)piperazin-1-yl)-2-oxoethyl)amino)-1H-indazol-3-yl)piperidine-2,6-dione] had a DC50 of no more than 100 nM and a Dmax of no less than 70%.

Consider `Cc1c([C@@H](C)Nc2nnc(C)c3ccc(N4CCN(CCCCCN5CCN(C(=O)CNc6ccc(C7CCC(=O)NC7=O)cc6)CC5)CC4)cc23)cccc1C(F)(F)F` (stereo partly drawn) [Compound A301, 3-(4-((2-(4-(5-(4-(1-Methyl-4-(((R)-1-(2-methyl-3-(trifluoromethyl)phenyl)-ethyl)amino)phthalazin-6-yl)piperazin-1-yl)pentyl)piperazin-1-yl)-2-oxoethyl)amino)phenyl)-piperidine-2,6-dione], for which the DC50 is greater than 2000 nM and the Dmax is less than 30%.

Consider `Cc1c([C@@H](C)Nc2nnc(C)c3ccc(N4CCN(CCCCCCCCCN5CCN(C(=O)CNc6ccc(C7CCC(=O)NC7=O)cc6)CC5)CC4)cc23)cccc1C(F)(F)F` (stereo partly drawn) [Compound A303, 3-(4-((2-(4-(9-(4-(1-methyl-4-(((R)-1-(2-methyl-3-(trifluoromethyl)phenyl)-ethyl)amino)phthalazin-6-yl)piperazin-1-yl)nonyl)piperazin-1-yl)-2-oxoethyl)amino)phenyl)-piperidine-2,6-dione], for which the DC50 was no more than 100 nM and the Dmax is no less than 70%.

As for `COc1cc2nc(C)nc(N[C@H](C)c3cc(N)cc(C(F)(F)F)c3)c2cc1OC` [Compound C1, (R)—N-(1-(3-amino-5-(trifluoromethyl)phenyl)ethyl)-6,7-dimethoxy-2-methylquinazolin-4-amine, reference compound], the DC50 was greater than 10000 nM.

In general, DC50 refers to the concentration giving 50% degradation. Read a high DC50 as a less potent degrader. As a reminder, the Dmax is the greatest extent of degradation seen. Higher therefore signals a fuller loss of target.
